Assay results: US20240148720A1, “Use of Histamine Antagonists and Glucocorticoid for Treating and Preventing Neurodegenerative Diseases” (City University of Hong Kong, priority 2022, published 2024)
Structures can show the parent of a compound that is named as a salt.

Columns and labels:
[1] = cited from earlier work
[2] = biological target: histamine H4 receptor (Homo sapiens, UniProt Q9H3N8); conditions: cited from earlier work
[3] = test system: APP/PS1 mice; test: Novel object recognition test, APP/PS1 mice; conditions: 8-month-old APP/PS1 mice; VUF6002 2.5 mg/kg i.p. daily 1 month; vs vehicle; FIG. 2C
[4] = test system: APP/PS1 mice; test: Y-maze test, APP/PS1 mice; conditions: 8-month-old APP/PS1 mice
[5] = rats; 100 mg/kg; cited from earlier work
[6] = test system: microglia; test: Anti-IBA-1 immunostaining of microglia in hippocampal CA1 of 3xTg-AD mice; conditions: 17-month-old 3xTg-AD mice
[7] = test system: hyperphosphorylated Tau; test: Anti-AT8 immunostaining of hyperphosphorylated Tau in hippocampus of 3xTg-AD mice; conditions: 17-month-old 3xTg-AD mice
[8] = test system: 3xTg-AD mice; test: Barnes maze test, 3xTg-AD mice; conditions: 17-month-old 3xTg-AD mice, VUF6002 2.5 mg/kg daily about 3 months
[9] = test system: APP/PS1 mice; test: Morris Water Maze test, APP/PS1 mice; conditions: 8-month-old APP/PS1 mice; for escape latency to find the hidden platform: FIG. 6C
[10] = test system: 3xTg-AD mice; test: Novel object recognition test, 3xTg-AD mice; conditions: 17-month-old 3xTg-AD mice; VUF6002 2.5 mg/kg daily about 3 months; FIG. 3C
[11] = test system: 3xTg-AD mice; test: Y-maze test, 3xTg-AD mice; conditions: 17-month-old 3xTg-AD mice; VUF6002 2.5 mg/kg daily about 3 months; FIG. 3B
[12] = test system: STZ-treated mice; test: Y-maze spontaneous alternation test, streptozocin-induced sporadic AD mouse model; conditions: STZ ICV mice; VUF6002 2.5 mg/kg i.p. daily for 21 days; FIG. 1B
[13] = test system: STZ-treated mice; test: Barnes maze test, streptozocin-induced sporadic AD mouse model; conditions: STZ ICV mice, VUF6002 2.5 mg/kg i.p. 21 days
[14] = cited from earlier work; remark: listed apart in the source

Chain of histamine H4 receptor (Q9H3N8 whole entry, species assumed): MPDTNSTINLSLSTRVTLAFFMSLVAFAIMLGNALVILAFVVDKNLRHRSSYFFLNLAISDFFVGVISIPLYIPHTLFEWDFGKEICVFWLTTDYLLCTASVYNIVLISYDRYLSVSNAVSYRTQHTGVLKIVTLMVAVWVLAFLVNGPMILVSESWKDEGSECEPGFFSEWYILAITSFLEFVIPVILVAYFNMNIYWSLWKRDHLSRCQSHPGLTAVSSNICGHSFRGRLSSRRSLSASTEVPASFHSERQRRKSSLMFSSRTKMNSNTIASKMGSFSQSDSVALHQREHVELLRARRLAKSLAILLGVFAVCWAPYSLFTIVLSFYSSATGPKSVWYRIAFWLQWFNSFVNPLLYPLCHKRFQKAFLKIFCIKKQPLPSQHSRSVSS

For `CC(C)c1cc(N2CC[C@@H](N)C2)nc(N)n1` [JNJ39758979], the “severe side effects in humans” value [1] is listed as “may induces agranulocytosis in humans”.
In the case of `CN1CCN2c3ccccc3Cc3ccccc3C2C1` (stereo not shown) [Mianserin], the “binding to histamine receptors” value [2] is given as “can bind to histamine H1, H3, and H4 receptors”.
For `S=C(NC1CCCCC1)N1CCC(c2cnc[nH]2)CC1` [Thioperamide], the “binding to histamine receptors” value [2] is listed as “can bind to histamine H3 and H4 receptors”.
For `CN1CCN(C(=O)c2nc3cc(Cl)ccc3[nH]2)CC1` [VUF6002, 1-[(5-chloro-1H-benzimidazol-2-yl)carbonyl]-4-methylpiperazine maleate], the recognition index [3] is given as “significantly elevates”, the spontaneous alternation rate ([4]; VUF6002 2.5 mg/kg i.p. daily 1 month, vs vehicle, FIG. 2B) is given as “significantly elevates” and the anti-inflammation effect [5] is given as “revealed an anti-inflammation effect”. For the same compound, the “intensity of Iba-1-positive microglia, hippocampal CA1 region” value ([6]; VUF6002 2.5 mg/kg 3 months, FIG. 5A) was “markedly reduces the intensity of Iba-1-positive”, the “density of microglia, hippocampal CA1 region” value ([6]; VUF6002 2.5 mg/kg, FIG. 5B) was “significantly reduces the density of microglia” and the “mean intensity of AT8 (p-Tau), CA1 region of hippocampus” value ([7]; VUF6002 2.5 mg/kg 3 months, FIG. 4C-4D) was “markedly reduces the mean intensity of AT8”. The “performance during the training phase of Barnes Maze test” value ([8]; FIG. 3D) was “marked improvement”, the “primary errors to find the target hole, probe test” value ([8]; vs vehicle, FIG. 3E) was “make fewer errors to find the target hole” and the “time spent in the target quadrant, probe test” value (shortened to “time spent … probe test”) ([8]; vs vehicle, FIG. 3F) was “spend more time in the target quadrant”. For the same compound, the “long-term spatial memory during the training phase” value ([9]; VUF6002 2.5 mg/kg i.p. daily 1 month, FIG. 2D) was “markedly improved”, the “number of platform crosses, probe test” value ([9]; VUF6002 2.5 mg/kg i.p. daily 1 month, vs vehicle, FIG. 2E) was “make more attempts to swim across the original location of the platform” and the “time spent … probe test” value ([9]; VUF6002 2.5 mg/kg i.p. daily 1 month, vs vehicle, FIG. 2F) was “spend more time on searching the platform in the target quadrant”. The “short-term memory, performance on novel object recognition test” value [10] was “completely reverse the memory deficit”, the “short-term memory, performance on Y-maze” value [11] was “completely reverse the memory deficit” and the “spontaneous alternation rate (short-term spatial working memory)” value [12] was “completely reversed”. The “error to find the target hole, probe trial” value ([13]; FIG. 1E) was “reduces the error to find the target hole”, the “time spent in target quadrant, probe trial” value ([13]; FIG. 1F) was “markedly increases the time spent in target quadrant” and the “latency to get into the hidden escape box (long-term spatial memory)” value ([13]; day 25 post injection, FIG. 1D) was “completely reverses the STZ-induced long-term memory deficits”. For the same compound, the “severe side effect on animal models” value [14] was “has not been reported to have a severe side effect”.
With `C[C@@H]1C[C@H]2[C@@H]3CCC4=CC(=O)C=C[C@]4(C)[C@@]3(F)[C@@H](O)C[C@]2(C)[C@@]1(O)C(=O)CO` [dexamethasone, (11β,16α)-9-Fluoro-11,17,21-trihydroxy-16-methylpregna-1,4-diene-3,20-dione] the “spontaneous alternation rate (short-term spatial working memory)” value ([4]; dexamethasone 1 mg/kg i.p. two months, FIG. 6A) was “prominently improves the short-term memory deficits”, the “reduction of phosphorylated Tau (AT8) intensity, hippocampal subiculum area” value ([7]; dexamethasone from 14- to 17-month-old, FIG. 7C-7D) was 53.3% and the “escape latency to find the hidden platform” value ([9]; dexamethasone 1 mg/kg i.p. one month, vs vehicle) was “does not significantly reduce the latency”. For the same compound, the “escape latency to find the hidden platform” value ([9]; dexamethasone 1 mg/kg i.p. two months) was “reverses the long-term memory deficits”, the “number of platform crosses, probe test” value ([9]; dexamethasone 1 mg/kg i.p. two months, vs vehicle, FIG. 6D) was “conspicuously increased number of platform crosses” and the “time spent … probe test” value ([9]; dexamethasone 1 mg/kg i.p. two months, vs vehicle, FIG. 6E) was “conspicuously increased”.
